# Measured values as given in a melting point compilation (Tetko et al.; mined from patent text by program, amines drawn as free bases though some values may be those of a salt).
row,SMILES,melting point [°C]
1,COC(=O)c1ccc(C)cc1N(C)S(C)(=O)=O,100 to 103
2,CS(=O)(=O)OCCCOC(=O)c1[nH]c(-c2ccccc2)c2cc(Cl)ccc12,155 to 158
3,CC(C)NC[C@H](O)COc1ccc(Cc2nc(Br)c[nH]2)cc1,125 to 127
4,NC(=O)OCC1COC(C(F)(F)F)(C(F)(F)F)O1 (stereo unspecified),52 to 54
5,COC(=O)c1cc(C(C)O)c(C(F)(F)F)cc1NC(C)=O (stereo unspecified),120 to 122
6,Cc1ccc(C(=O)NC2CCN(CCCCl)CC2)cc1,150 to 152
7,Cc1cc2c(c3ccc(=O)[nH]c13)OC(CNC(=O)CN(C)C(=O)OC(C)(C)C)C2 (stereo unspecified),190 to 191
8,CCC(O)c1cc(C2(c3cccc(-c4cccnc4F)c3)N=C(N)N(C)C2=O)cn1CC (stereo unspecified),115 to 121
9,CN(Cc1sc2c(=O)c(C(=O)NCc3ccc(Cl)cc3)cn(C)c2c1COCC[Si](C)(C)C)CC(O)c1ccc2ccccc2n1 (stereo unspecified),163 to 166
10,O=C(O)C1CC(=Cc2ccccc2)CC1C(=O)O (stereo unspecified),172
11,Clc1ccc(-c2nc3cccnc3n2Cc2ccccn2)cc1,144 to 146
12,ClCCCOc1ccc(-n2ccnc2)cc1,53 to 55
13,CC1(C)Cc2c(c(N3CCCC3)nc3sc4c(NCCCN5CCCC5=O)ncnc4c23)CO1,217
14,O=c1oc2c(O)c(O)ccc2c2cc(O)c(O)cc12,> 250
15,Cc1nnc(-c2ccc3occ(-c4ccc(CS(C)(=O)=O)cc4)c3c2)o1,250 to 251
16,CCCCc1oc2ccccc2c1C(=O)NCc1ccc2c(-c3ccc(Cl)cc3)c(OCc3nnn[nH]3)ccc2c1,208 to 211
17,COc1ccc(C(=C2CN(C(c3ccccc3)c3ccccc3)C2)S(C)(=O)=O)cc1,181
18,Cc1ccc(-c2cc3c(s2)CCCCC3=O)cc1,82 to 84
19,CCC1CN2C(C)=Nc3c(C)nn(C)c3C2=N1 (stereo unspecified),121 to 123
20,Nc1cc(N2CCNCC2)c(F)cc1[N+](=O)[O-],120 to 121
21,O=C(O)c1cc(F)c(-n2cccc2)cc1F,196 to 198
22,CC(=O)Oc1c(C(C)(C)C)cc2oc(C=O)cc2c1C(C)(C)C,160
23,C=CCN(CC=C)C(=O)Nc1cc(C)c(S(=O)(=O)C[N+](=O)[O-])c(C)c1,127 to 129
24,COc1ccc(C(=O)C(C)NC(=O)C(F)(F)F)cc1 (stereo unspecified),110 to 114
25,O=C(O)c1nn(-c2ccc(Cl)cc2Cl)c2c1CCc1cc(C(F)(F)F)ccc1-2,245
26,CCN1C(Oc2ccc(C)cc2)=NS(=O)(=O)N=C1Oc1ccc(C)cc1,302 to 304

row,SMILES,melting point [°C]
1,CC(C)(NC1=NS(=O)(=O)c2sc(Cl)cc2N1)c1ccccc1,360
2,CCCc1c(OCc2cccn3c(=O)c(CCC(=O)O)cnc23)ccc(C(C)=O)c1O,210 to 214
3,O=C1C(=Cc2ccco2)CCc2cc(OCCc3c[nH]cn3)ccc21,57 to 60
4,CN(C)Cc1cc2c(s1)Oc1ccccc1N=C2N1CCN(C)CC1,188 to 189
5,O=C(Nc1ccc(Cl)cc1)c1cc(Cl)c2cccnc2c1O,214 to 216
6,CCOC(=O)C(=CN)C(=O)c1cc(F)c(F)c(F)c1F,118 to 119
7,CCNc1nc(SC)ncc1CO,152 to 156
8,COc1cc(C(=O)Nc2c(C)cc3cn(CC(F)(F)F)nc3c2C(=O)NC(C)C)n(-c2ncccc2Cl)n1,178 to 181
9,CCOC(=O)c1cc(=NS(=O)(=O)c2ccccc2)c2c(Cl)cc(Cl)cc2[nH]1,184 to 185
10,CCCNC(=O)c1cnc2cccc(C)n2c1=O,158 to 160
11,CC1(C)OC(=O)Nc2c(Br)cc(-c3ccc(F)c(Cl)c3)cc21,194 to 195
12,c1cnc2ccc(Cn3nnc4ccc(-c5ccc6c(c5)OCO6)nc43)cc2c1,179 to 181
13,CC(C)C(=O)O[C@H](C)[C@@H](C)OC(=O)[C@@H](N)Cc1ccc(O)c(O)c1,165 to 166
14,O=C(Cc1ccc(I)cc1)NC[C@H]1CCCN1CCF,96
15,COc1c(OCc2ccc(-c3ccccc3S(=O)(=O)Nc3noc(C)c3C)c(COCCF)c2)cc(C)nc1C,81 to 86
16,COC(=O)Cc1ccc(CNC(=O)C2Cc3c(OC)cccc3N2S(=O)(=O)c2ccc(-c3cccc(C(F)(F)F)c3)cc2)cc1 (stereo unspecified),80
17,CCOC(=O)c1cc(OC)c2c(C)c(CCN(CC)CC)c(=O)oc2c1Br,150 to 151
18,CCC1C(=O)c2c(cc(OC)c(Cl)c2Cl)C1c1ccccc1 (stereo unspecified),114 to 116
19,C=C(Cl)c1c(C(F)(F)F)nc(C)[nH]c1=O,164 to 166
20,O=C(Cc1cc(F)ccc1[N+](=O)[O-])N1CCN(c2nsc3ccccc23)CC1,72
21,CCOC(=O)C(C)(C)n1c(=O)[nH]c2ccccc2c1=O,133 to 134
22,Cc1c(C(=O)NC2CCN(Cc3ccccc3)CC2)c2cc(F)ccc2n1Cc1ccccc1,194 to 195
23,CC(C)Oc1cc(NNC(=N)C(F)(F)F)c(Cl)cc1Cl,80.5 to 81
24,CCCCOc1cc2c(cc1C(=O)NC)CC(N(CCC)CCC)C2 (stereo unspecified),129 to 130
25,CCCNCCC1Cc2ccc(-c3ccc(=O)[nH]n3)cc2C1 (stereo unspecified),150 to 151
26,CN1CCN(CC2(O)CC=Cc3ncccc32)CC1 (stereo unspecified),126 to 127

row,SMILES,melting point [°C]
1,CS(=O)(=O)c1ccc(-n2nc(C(F)(F)F)cc2-c2ccc([N+](=O)[O-])cc2)cc1,203 to 205
2,O=c1cccc2nccncc1-2,145 to 147
3,Cc1ccc(Nn2c(-c3ccccc3)c(C)[nH]c2=S)cc1C,228
4,CCOC(=O)c1ccccc1CN1C(=O)C(CCO)Oc2ccccc21 (stereo unspecified),114 to 116
5,CC(C)Oc1ccc(-n2c(C(=O)NCCNC(=O)OC(C)(C)C)c(Cl)c3cc(Oc4ccc(C(F)(F)F)cn4)ccc32)cc1,184 to 185
6,CC(C)(CC(F)(F)F)NC(=N)NC#N,153
7,CC(C)(C)[C@H]1CC[C@@H](Nc2ncnc(I)c2Cl)CC1,89 to 90
8,O=C(O)CCCCc1ccc(NS(=O)(=O)c2ccccc2)cn1,136 to 138
9,O=C(c1ccc(Cl)cc1)c1nccs1,101 to 103
10,CCS(=O)(=O)Nc1cc(-n2c(=O)cc(C(F)(F)F)n(N)c2=O)c(F)cc1C#N,190
11,CCOC(=O)NCc1cc(-c2ccc(Cl)cc2)no1,137
12,Cc1cc([N+](=O)[O-])c(C)cc1O,121 to 123
13,O=C1CCCN1c1cc(-c2ccnc(Nc3cccc(Cl)c3)n2)ccn1,165 to 166
14,Cc1nc(N2CCN(Cc3ccc(Cl)cc3)C2=O)sc1C(=O)NCc1cccnc1,178 to 179
15,COCCCNc1cccc(Oc2ccc(-c3cn(C4CCOCC4)c4ncnc(N)c34)cc2)c1C#N,205 to 207
16,O=c1ccc2cc(OC3CCC4(CCNCC4)CC3)ccc2o1,193 to 194
17,CC#CCOc1ccc(S(=O)(=O)N(C)C2(C(=O)O)CCCCC2)cc1,124 to 126
18,Nc1nc(-c2cc(Cl)ccc2Cl)nc(N2CCN(c3ccccc3)CC2)n1,203 to 206
19,Cc1ccccc1NC(=O)C1(C)CCCCC1,138
20,CCOC(=O)C1=C(C)NC(=S)N(C(=O)OCC)C1c1ccc(OC)cc1 (stereo unspecified),130 to 132
21,N#Cc1ccc(C(O)c2occc(=O)c2OCc2ccccc2)cc1 (stereo unspecified),135 to 138
22,O=C1CCc2cc(-c3cccc(Cl)c3)ccc21,113
23,CN(C)CC(c1ccc(OC(=O)c2ccccc2)cc1)C1(OC(=O)c2ccccc2)CCCCC1 (stereo unspecified),128 to 130
24,CC1C(=O)Nc2c(Oc3ccccc3Cl)cccc21 (stereo unspecified),138 to 139
25,CC(=O)NCCCc1cccc2c1CCO2,66 to 67
26,COc1cc(C(=O)c2ccnn2C)c(Cl)c(Cl)c1OC,99.5 to 101

row,SMILES,melting point [°C]
1,CN1CCCC1=Nc1ncnc2c1ncn2C1=CC(=O)CC1,200 to 205
2,CCc1ccc(-c2ccc(C(=O)Nc3ccc4cc(CN5CCCC5)cnc4c3C)cc2)cc1,189 to 190
3,CN1CCC(OC(=O)c2ccccc2Nc2ccnc3cc(C(F)(F)F)ccc23)CC1,116
4,CC(C)(C)OC(=O)CN(C(=O)CNC(=O)c1ccc2ccccc2n1)c1ccccc1,114
5,CC1(C)Cc2c(c(O)cc3c2C(c2cccc(Br)c2)=NCC3(C)C)O1,230 to 235
6,C=CCc1oc2c(OC)cccc2c1CC(=O)OC,65 to 66
7,CN1CCC(Oc2ccc(NC(=O)n3ccc4cc(Oc5cc(CC(N)=O)ncn5)ccc43)cc2C(F)(F)F)CC1,200 to 201
8,O=C1N(N2CCOCC2)c2ccccc2C1(O)Cc1ccncc1 (stereo unspecified),198 to 200
9,O=S(=O)(Nc1ccc(Cl)cc1C(=NOCc1ccc(Br)cc1)c1ccccc1)C(F)(F)F,55 to 56
10,Cc1ccc(N(Cc2ccc(N(C)C)cc2)C(=O)Nc2c(C(C)C)cccc2C(C)C)c(C)c1,100
11,O=c1ccc2c(-c3cccs3)nccc2[nH]1,238 to 240
12,CON1C(=O)CC2(CCN(CCNC(=O)c3cccnc3)CC2)C1=O,112 to 119
13,O=C(O)C(Cc1ccccc1)Oc1c(Br)cc(-c2ccc(-c3c(Cc4ccccc4)oc4ccccc34)cc2)cc1Br (stereo unspecified),90 to 92
14,O=C(c1cc2ccccc2s1)C1CCN(CCc2ccccc2)CC1,129 to 130
15,Cc1coc2ccc(C#N)cc12,73
16,C#Cc1cc(Cc2cnc(N)nc2N)cc(OC)c1OC,173 to 175
17,O=C1C=C(NC(=O)C(=O)c2cn(Cc3ccc(F)cc3)c3ccccc23)CO1,260 to 262
18,Cc1ccc2c(c1)CC(=O)c1cc(C)ccc1O2,62 to 62.5
19,CCCCCC(=O)COS(=O)(=O)c1ccc(OCC)cc1,35 to 35.5
20,CCSc1c[nH]nc1C1=CCCN(C)C1,95 to 97
21,CCOC(=O)CSc1nccc(NCc2ccc(Cl)cc2)n1,175 to 178
22,O=C(O)c1cncc2cccc([N+](=O)[O-])c12,285
23,C#CCNC(=O)c1ncn2c1CN(C)C(=O)c1ccccc1-2,213 to 215
